In EPA's ToxValDB 9.5 (doi:10.2903/j.efsa.2009.213r):
≈ marks a conversion by molar mass, not a printed value.

How the values were obtained:
Aphidius rhopalosiphi = experiment: LR50; higher = less toxic; settings: not reported; mortality
Typhlodromus pyri = experiment: LR50; higher = less toxic; settings: not reported; mortality
Oryctolagus sp. = settings: developmental; development
Tagia sp. = settings: acute; mortality
Rattus norvegicus = settings: for NOAEL: histopathology: nonneoplastic
Daphnia magna = settings: chronic/long-term; duration: 21 days; reproduction
Oncorhynchus mykiss = settings: mortality
Mus musculus = settings: chronic; duration: 2 years; histopathology: nonneoplastic
Anas platyrhynchos = settings: oral, mortality
Canidae = settings: acute; oral; Dog Other; mortality
Apis mellifera = settings: acute, duration: 48 hours, mortality
Pleurozium sp. = settings: acute; duration: 72 hours; biomass

CCOc1ccc(C(C)(C)COCc2cccc(Oc3ccccc3)c2)cc1 [Etofenprox]
LR50 (Aphidius rhopalosiphi): 0.42 g/ha | LR50 (Typhlodromus pyri): 0.7 g/ha | NOAEL (Oryctolagus sp.): 100 mg/kg-day | LC50 (Tagia sp.): > 47.2 mg/kg | LD50 (Rattus norvegicus; acute, oral, mortality): > 2000 mg/kg | NOAEL (Rattus norvegicus; chronic, duration: 2 years): 3.7 mg/kg-day | NOAEL (Rattus norvegicus; subchronic, duration: 13 weeks, oral, diet): 20 mg/kg-day | NOEC (Daphnia magna): 5.4e-05 mg/L | LC50 (Oncorhynchus mykiss; acute, duration: 96 hours): 2.7 ng/mL (≈ 7.17 nM) | NOEC (Oncorhynchus mykiss; chronic/long-term, duration: 21 days): 0.0021 mg/L | NOAEL (Mus musculus): 3.1 mg/kg-day | LD50 (Anas platyrhynchos; acute, unspecified): > 2000 mg/kg | LC50 (Anas platyrhynchos; short-term, feed): > 1280 mg/kg-day | LD50 (Canidae): > 5000 mg/kg | LD50 (Apis mellifera; dermal): 0.015 µg/piece | LD50 (Apis mellifera; oral, unspecified): 0.024 µg/piece | NOEC (Pleurozium sp.): 0.15 mg/L | LC50 (Colinus virginianus; acute, oral, diet, mortality): > 806 mg/kg-day | NOEL (Colinus virginianus; reproduction developmental): 89.6 mg/kg-day
